Read-outs that look alike come from different tables or passages of the source.
Tests used:
[1] = tested on: human adult dermal fibroblasts HDFa; assay: MTT cell viability assay, HDFa; assay type: cell-based; conditions: 72 h, non-malignant fibroblasts
Method: (§1) All complexes stable in solution were investigated for their anti-proliferative effect on nine human cancer cell lines, using the MTT-based cell viability assay. Cells were seeded in 96-well microtiter plates (Sarstedt) with a cell density of 0.05 × 10^6 cells per ml and 100 µL per well and incubated for 24 h. A dilution series of test compounds was added to the wells, ranging in twelve steps from 100 µM to 5 nM. As a control, equal amounts of DMSO were added. Treated cells were further incubated for 72 h. Then, 12.5 µL per well of MTT solution (0.05% in phosphate-buffered saline (PBS)) was added, followed by another 2 h of incubation. The plates were centrifuged, the medium was discarded and 25 µL per well of SDS solution in DMSO (10% SDS, 0.6% AcOH in DMSO) was added to dissolve the formazan. The plates were incubated for a further hour. Absorbances at 570 nm and 630 nm were measured using a plate reader (Tecan). Background absorbance (630 nm) was subtracted from the formazan signal (570 nm). The resulting absorbance was directly proportional to the amount of viable cells. The control was normalized to 100% viable cells and viability of cells treated with test compounds was calculated accordingly. IC50 values were calculated based on a sigmoidal fit model using GraphPad Prism. Means and SD were calculated from at least four independent experiments.

[2] = tested on: mdr MCF-7^Topo mamma carcinoma cells; assay: MTT cell viability assay, MCF-7Topo; assay type: cell-based, human; conditions: 72 h
Method: as §1

[3] = tested on: thioredoxin reductase (TrxR); assay: Inhibition of TrxR activity in cell lysates; assay type: biochemical, human; conditions: lysates of 518A2 melanoma cells
Method: For the measurement of TrxR activity, the TrxR Colorimetric Assay Kit (Cayman Chemicals) was used according to manufacturer’s instructions. 1 × 10^8 518A2 melanoma cells were harvested using a cell scraper, homogenized in 5 mL of cold lysis buffer (50 mM K3PO4, 1 mM EDTA, pH 7.4) on ice and centrifuged for 15 min (4 °C, 10,000×g). The protein concentration of the supernatant was determined via Nanodrop. Then, 10 µL Protease Inhibitor Cocktail Plus (Carl Roth) was added to 1 mL of the cell lysate, which was either used for the assay right away or stored at − 80 °C. Prior to use, the assay buffer was warmed to room temperature and the cell lysate, NADPH (Nicotinamide adenine dinucleotide phosphate), ATM (aurothiomalate) and rat liver TrxR enzyme were thawed and kept on ice After determination of the amount of cell lysate for optimum TrxR activity, alle components were pipetted into the wells of a clear 96-well plate and the enzymatic reactions were initiated by addition of NADPH and 5,5′-dithiobis-(2-nitrobenzoic acid (DTNB). Then, the absorbance at 405 nm was measured once every minute using a plate reader (Tecan) at least ten time points. The TrxR activity was measured in the presence and absence of ATM. The difference between the two results renders the DTNB reduction due to TrxR activity. By plotting the average absorbance values as a function of time, the slope of the linear portion of the curve was obtained, and the change of absorbance (ΔA405) per minute could be determined. The values were corrected for unspecific DTNB reduction and the TrxR activity was calculated using the following formula: TrxR activity [µmol/min/mL] = [corrected ΔA/min (sample)/7.92 mM^−1] × [0.2 mL/0.02 mL] × sample dilution. The assay was conducted at 22 °C. All experiments were performed in triplicate and the solvent-treated negative controls were set to 100%.

[4] = tested on: HCT-116^wt colon carcinoma cells; assay: MTT cell viability assay, HCT-116wt; assay type: cell-based, human; conditions: 72 h
Method: as §1, with “Cells” for “All complexes stable in solution were investigated for their anti-proliferative effect on nine human cancer cell lines, using the MTT-based cell viability assay. Cells”

[5] = tested on: HCT-116^p53−/− (p53 knockout mutant) colon carcinoma cells; assay: MTT cell viability assay, HCT-116 p53-/-; assay type: cell-based, human; conditions: 72 h
Method: as §1, with “Cells” for “All complexes stable in solution were investigated for their anti-proliferative effect on nine human cancer cell lines, using the MTT-based cell viability assay. Cells”

518A2 melanoma cells = assay: Influence on the cell cycle (PI flow cytometry); assay type: cell-based, human; conditions: 518A2 cells, 24 h, IC50 concentrations (5: approximately twice its IC50)
Method: The complexes were investigated for their effect on the cell cycle. Cells were seeded in 6-well plates (Sarstedt) with 3 mL per well and a cell density of 0.05 × 10^6 cells per mL and incubated for 24 h. […] The supernatant of each sample was transferred into a separate tube on ice, the cell monolayer was rinsed once with PBS and the cells were harvested using trypsin, and also transferred into the tube. The cells were pelleted (4 °C, 150 × g, 5 min), re-suspended in 1 mL ice cold EtOH (70%) and stored for at least 1 h at 4 °C. Prior to propidium iodide (PI) staining, the cells were centrifuged (150×g, 5 min), the supernatant was discarded and the cells were layered with 1 mL PBS for 5 min. The cells were centrifuged again and the pellet was re-suspended in 200 µL of PI staining solution (50 µg/mL PI, 1% sodium citrate in PBS) containing 1 µL RNase (10 mg/mL stock solution) and incubated in dark for 30 min at 37 °C. The cell cycle distribution was assessed by flow cytometry (Beckmann Coulter). Means and SD were calculated from at least three independent experiments.

[6] = tested on: HT-29 colon carcinoma cells; assay: MTT cell viability assay, HT-29; assay type: cell-based, human
Method: as §1

EA.hy926 cells = assay: Tube formation assay; assay type: cell-based, human; conditions: 5 µM (CA-4 0.01 µM)
Method: EA.hy926 cells were cultured overnight in endothelial medium (37 °C, 95% humidity, 5% CO2) instead of DMEM. In addition, Matrigel was thawed on ice in the refrigerator. Pipette tips and 96-well plates were stored at − 20 °C overnight. The next day, 30 µL of Matrigel was added to each well bubble-free and the well plate was incubated for approximately 45 min (37 °C, 95% humidity, 5% CO2). Subsequently, 100 µL of cell suspension was added to each well at a concentration of 0.4–0.5 × 10^6 cells/mL onto the Matrigel-treated wells and the substances were added in tenfold pre-dilution. This was followed by incubation for approximately 6 h, until tubes formed in the negative control with DMSO. At this point, documentation under the microscope took place.

[7] = Homo sapiens, Colon carcinoma cell

For `Sc1ncnc2nc[nH]c12` [6-MP, 6-Mercaptopurine, reference compound], the IC50 ([1]; Homo sapiens, HDFa) was greater than 50 µM, the IC50 ([2]; Homo sapiens, MCF7/Topo) was 6.4 ± 0.46 µM and the “Inhibition of TrxR activity” value [3] was “inhibited TrxR”. For the same molecule, the IC50 [4, 7] was 5.3 ± 0.28 µM, the IC50 [5, 7] was 0.58 ± 0.05 µM and the “Effect on the cell cycle” value (518A2 melanoma cells) was “accumulated in G1-phase”. It also gave an IC50 ([6]; Homo sapiens, HT-29, 72 h) of 1.4 ± 0.06 µM.

With `Nc1nc2nc[nH]c2c(=S)[nH]1` [6-TG, 6-thioguanine, reference compound] the IC50 ([1]; Homo sapiens, HDFa) was greater than 50 µM, the IC50 ([2]; Homo sapiens, MCF7/Topo) was 0.9 ± 0.09 µM and the “Inhibition of TrxR activity” value [3] was “inhibited TrxR”. The “Inhibition of tube formation” value (EA.hy926 cells) was “stronger such effect when compared to 6-MP”, the “Effect on the cell cycle” value (518A2 melanoma cells) was “accumulated in G1-phase” and the IC50 ([6]; Homo sapiens, HT-29, 72 h) was 1.2 ± 0.08 µM.

For `CC(=O)OC[C@H]1O[C@@H]([S-])[C@H](OC(C)=O)[C@@H](OC(C)=O)[C@@H]1OC(C)=O.CCP(CC)CC.[Au+]` [Auranofin, auranofin], the IC50 ([2]; read-out: IC50 MCF7^Topo) was 4.7 ± 0.43 µM, the “Inhibition of TrxR activity” value [3] was “inhibited TrxR” and the “Inhibition of tube formation” value (EA.hy926 cells) was “inhibitory effects”. The “Effect on the cell cycle” value (518A2 melanoma cells) was “arrested mainly in S-phase” and the IC50 ([6]; 72 h) was 2 ± 0.18 µM.

`OC[C@H]1O[C@@H](n2cnc3c([S][Au][PH](c4ccccc4)(c4ccccc4)c4ccccc4)ncnc32)[C@H](O)[C@@H]1O` [Complex 5, (1,7-Dihydro-6H-purine-9-β-D-ribofuranosyl-6-thiolato) (triphenylphosphane) gold(I)] was tested, and the IC50 [1] was 36 ± 1.7 µM, the IC50 ([2]; read-out: IC50 MCF7^Topo) was 1.7 ± 0.14 µM and the “Inhibition of TrxR activity” value [3] was “inhibited TrxR even more strongly than 6-MP, 6-TG and auranofin”. The “Inhibition of tube formation” value (EA.hy926 cells) was “inhibitory effect, comparable in strength to that of 6-TG”, the IC50 [4] was 1.7 ± 0.2 µM and the IC50 [5] was 0.3 ± 0.07 µM. For the same molecule, the “Effect on the cell cycle” value (518A2 melanoma cells) was “both a G1-phase arrest and an S-phase arrest” and the IC50 ([6]; 72 h) was 1.2 ± 0.09 µM.

`Nc1nc([S][Au][PH](c2ccccc2)(c2ccccc2)c2ccccc2)c2ncn([C@@H]3O[C@H](CO)[C@@H](O)[C@H]3O)c2n1` [Complex 6, (2-Amino-1,7-dihydro-6H-purine-9-β-D-ribofuranosyl-6-thiolato) (triphenylphosphane) gold(I)] was tested, and the IC50 [1] was 36 ± 3 µM, the IC50 ([2]; read-out: IC50 MCF7^Topo) was 3.2 ± 0.29 µM and the “Inhibition of TrxR activity” value [3] was “inhibited TrxR even more strongly than 6-MP, 6-TG and auranofin”. The IC50 [4] was 5.5 ± 0.2 µM, the IC50 [5] was 1.4 ± 0.3 µM and the IC50 ([6]; 72 h) was 3.1 ± 0.19 µM.

Reference: article PMC9653339, “Revisiting the anticancer properties of phosphane(9-ribosylpurine-6-thiolato)gold(I) complexes and their 9H-purine precursors” (Journal of Biological Inorganic Chemistry, 2022)
